These results are taken from PMC12154458, “High-Throughput Screens of Repurposing Hub and DOS Chemical Libraries Reveal Compounds with Novel and Potent Inhibitory Activity Against the Essential Non-Neuronal Acetylcholinesterase of Schistosoma mansoni (SmTAChE)” (International Journal of Molecular Sciences, 2025).

Assay [1] has as its target T1, rSmTAChE (Schistosoma mansoni, UniProt A0A3Q0KMM5). Type of assay: biochemical.
Assay [2] concerns S. mansoni adult male and female worms. Conditions: survival over 3 days; read-out: IC50 against adults; cited from earlier work.
Assay [3] concerns the target recombinant human acetylcholinesterase, rHsAChE (Homo sapiens, UniProt P22303). The assay can be described thus: biochemical.
Assay [4] has as its system newly transformed S. mansoni schistosomula. The settings on record: survival over 3 days; read-out: IC50 against schistosomula; cited from earlier work.
In a further assay the test system is S. mansoni worms in vivo. The settings on record: one time 200 mg/kg by oral gavage, four mice, 16–18 days post-drug administration; cited from earlier work.
Assay [5] addresses T1, rSmTAChE. The assay can be described thus: biochemical. Conditions: for inhibition at 20 µM: read-out: HTS/rSmTAChE Inhibition (Ave, %).
In assay [6] the test system is human red blood cell AChE. Conditions: cited from earlier work.
[7] abbreviates: read-out: qAC50 (IC50), rSmTAChE.
Where [8] appears, read: read-out: qAC50 (IC50), rHsAChE.

SMILES strings stand for the structures. Like-named read-outs stand apart in the source and are kept apart here.
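Throughout, for Inhibition (%) (Average): mostly 20 µM final but a few compounds at 5 or 10 µM.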
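Throughout, for Inhibition (%) Replicate A: mostly 20 µM final but a few compounds at 5 or 10 µM.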
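Throughout, for Inhibition (%) Replicate B: mostly 20 µM final but a few compounds at 5 or 10 µM.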

recombinant human acetylcholinesterase, rHsAChE, sequence (P22303 32-614): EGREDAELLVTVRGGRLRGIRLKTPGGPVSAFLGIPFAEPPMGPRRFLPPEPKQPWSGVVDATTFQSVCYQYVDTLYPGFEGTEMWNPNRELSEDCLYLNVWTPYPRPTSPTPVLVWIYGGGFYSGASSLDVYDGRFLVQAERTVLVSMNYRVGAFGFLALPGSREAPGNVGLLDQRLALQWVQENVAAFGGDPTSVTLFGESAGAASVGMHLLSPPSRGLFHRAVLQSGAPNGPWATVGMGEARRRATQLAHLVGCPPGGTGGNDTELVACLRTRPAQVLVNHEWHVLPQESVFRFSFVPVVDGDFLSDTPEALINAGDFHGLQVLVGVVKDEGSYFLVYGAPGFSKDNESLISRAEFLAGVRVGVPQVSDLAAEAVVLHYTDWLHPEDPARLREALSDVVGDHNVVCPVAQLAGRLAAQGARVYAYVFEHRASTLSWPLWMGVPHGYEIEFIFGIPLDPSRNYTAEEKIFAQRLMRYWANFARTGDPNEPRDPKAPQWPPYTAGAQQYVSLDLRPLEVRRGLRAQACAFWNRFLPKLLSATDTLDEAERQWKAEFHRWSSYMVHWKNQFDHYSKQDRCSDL
T1 sequence (A0A3Q0KMM5 27-661 limits assumed): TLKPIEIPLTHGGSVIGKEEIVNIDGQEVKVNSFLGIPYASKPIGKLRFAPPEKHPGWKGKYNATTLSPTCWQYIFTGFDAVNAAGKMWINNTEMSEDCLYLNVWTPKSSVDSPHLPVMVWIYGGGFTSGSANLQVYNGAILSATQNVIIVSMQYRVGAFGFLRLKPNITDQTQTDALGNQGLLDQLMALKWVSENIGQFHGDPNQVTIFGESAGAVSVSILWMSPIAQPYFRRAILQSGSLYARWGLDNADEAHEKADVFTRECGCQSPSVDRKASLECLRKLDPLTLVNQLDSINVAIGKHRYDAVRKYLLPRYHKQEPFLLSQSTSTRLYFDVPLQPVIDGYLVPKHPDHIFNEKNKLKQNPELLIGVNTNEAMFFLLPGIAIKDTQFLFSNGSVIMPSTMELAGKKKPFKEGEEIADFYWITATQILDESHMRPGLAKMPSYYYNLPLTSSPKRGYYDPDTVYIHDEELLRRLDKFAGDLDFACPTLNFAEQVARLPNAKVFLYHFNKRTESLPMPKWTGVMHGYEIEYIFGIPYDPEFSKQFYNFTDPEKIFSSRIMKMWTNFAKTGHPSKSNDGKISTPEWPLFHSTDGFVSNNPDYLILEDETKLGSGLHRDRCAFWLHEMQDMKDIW

What is called IC50 is the concentration at which inhibition is half-maximal. Take `Nc1nc(NCC2CCC(CNS(=O)(=O)c3cccc4ccccc34)CC2)nc2ccccc12` (stereo not shown) [CGP-71683, reference compound]: on rSmTAChE [1], the “Data Mode (curve class), rSmTAChE” value is given as “decreasing”; the “SI (Hs/Sm)” value was found to be 8.82; the “fold greater potency/selectivity for SmTAChE vs. HsAChE (Selectivity Index)” value is recorded as “about 10 fold”. The IC50 on rSmTAChE [1] (read-out: IC50 (µM) rSmTAChE) is 2.21 µM. In assay [2], the IC50 is approximately 2 µM. Besides, in assay [3], the “Data Mode (curve class), rHsAChE” value is “decreasing (weakly active)”. Further, in assay [3] (read-out: IC50 (µM) rHsAChE), the half-maximal inhibitory concentration (IC50) was more than 19.5 µM. Moreover, in assay [4], the IC50 was approximately 1 µM. For the same molecule, the “worm burden compared to the controls” value with S. mansoni worms in vivo was “no differences in worm burden”. Besides, at rSmTAChE [5], the “Inhibition (%) (Average)” value turned out to be 61.37%, the “Inhibition (%) Replicate A” value is given as 61.71% and the “Inhibition (%) Replicate B” value amounted to 61.03%. Besides, the “HTS/rSmTAChE Inhibition (Ave, %)” value on rSmTAChE [5] (5 µM) came out at 61.37%.
Consider `COc1cc(NC(C)CCCN)c2ncccc2c1` (stereo not shown) [Primaquine phosphate, reference compound], for which, at rSmTAChE [1], the “Data Mode (curve class), rSmTAChE” value is “decreasing” and the “SI (Hs/Sm)” value is listed as 2.21. Moreover, the “Data Mode (curve class), rHsAChE” value in assay [3] is given as “decreasing (weakly active)”. Besides, in assay [6], the “IC33 human red blood cell AChE” value was 38 µM and the “IC67 human red blood cell AChE” value was 247 µM. Besides, at rSmTAChE [5], the inhibition at 20 µM is 73.7%.
As to `COC(=O)/C=C/c1cccc(N(Cc2ccc(-c3ccc(N(C)C)cc3)cc2)C(=O)C2CCCCC2)c1` [BRD-K08864679-001-02-2], the “Data Mode (curve class), rSmTAChE” value at rSmTAChE [1] was “inactive”. Also, in assay [3], the “Data Mode (curve class), rHsAChE” value was “inactive”. Also, at rSmTAChE [5], the “Inhibition (%) (Average)” value came to 67.27%, the “Inhibition (%) Replicate A” value is recorded as 71.08% and the “Inhibition (%) Replicate B” value turned out to be 63.46%.
With `N#C[C@H]1[C@H](c2ccc(C#CC3CC3)cc2)[C@H](CO)N1C(=O)Cc1ccccn1` [BRD-K00124439-001-01-2], at rSmTAChE [1], the “rSmTAChE Data Mode” value is reported as “decreasing (weakly active)”. Also, in assay [3], the “rHsAChE Data Mode” value is “inactive”. On rSmTAChE [5], the “Inhibition (%) (Average)” value stood at 63.26%, the “Inhibition (%) Replicate A” value came out at 63.67% and the “Inhibition (%) Replicate B” value is reported as 62.84%.
Taken in the same sequence, the figures for `COc1cccc(C#Cc2ccc([C@@H]3[C@@H](C#N)N(C(=O)c4ccccn4)[C@@H]3CO)cc2)c1` [BRD-K66084396-004-02-2] were “inactive”, “inactive”, 72.85%, 73.10% and 72.60%.
With `Clc1ccc(CSC(Cn2ccnc2)c2ccc(Cl)cc2Cl)cc1` (stereo not shown) [BRD-A70649075-008-30-8], the “Data Mode (curve class), rSmTAChE” value on rSmTAChE [1] is listed as “decreasing (weakly active)”. Besides, the IC50 at rSmTAChE [1] (setting [7]) was more than 38 µM. For the same molecule, the “Data Mode (curve class), rHsAChE” value in assay [3] is “decreasing (weakly active)”. For the same molecule, the IC50 in assay [3] (setting [8]) is more than 38 µM. Moreover, at rSmTAChE [5], the “Inhibition (%) (Average)” value was determined as 65.58%, the “Inhibition (%) Replicate A” value is listed as 67.22% and the “Inhibition (%) Replicate B” value amounted to 63.95%.
For the molecule `Oc1cc(Cl)ccc1Oc1ccc(Cl)cc1Cl` [Triclosan, reference compound], at rSmTAChE [1], the “Data Mode (curve class), rSmTAChE” value is “decreasing” and the “SI (Hs/Sm)” value is 5.78. In addition, the “Data Mode (curve class), rHsAChE” value in assay [3] is listed as “decreasing (weakly active)”. Also, the inhibition at 20 µM on rSmTAChE [5] stood at 68%.
Take `O=C(O)CNC(=O)c1c(O)c2ccccc2n(Cc2ccccc2)c1=O` [IOX2, reference compound]: the “Data Mode (curve class), rSmTAChE” value at rSmTAChE [1] was “decreasing”. At rSmTAChE [1] (read-out: IC50 (µM) rSmTAChE), the IC50 is 16.7 µM. The 50% inhibitory concentration (IC50) at rSmTAChE [1] (setting [7]) worked out at 16.7 µM. For the same molecule, in assay [3], the “Data Mode (curve class), rHsAChE” value is reported as “decreasing” and the “SI (Sm/Hs)” value is listed as 2.16. The IC50 in assay [3] (read-out: IC50 (µM) rHsAChE) turned out to be 7.75 µM. In addition, on rSmTAChE [5], the “Inhibition (%) Replicate A” value is given as 61.67% and the “Inhibition (%) Replicate B” value stood at 70.82%. In addition, the “rSmTAChE HTS Inhibition (Ave, %)” value on rSmTAChE [5] (5 µM) was determined as 66.25%.
Turning to `CCOc1nc2cccc(C(=O)OCc3oc(=O)oc3C)c2n1Cc1ccc(-c2ccccc2-c2noc(=O)[nH]2)cc1` [BRD-K25723200-001-03-5], the “Data Mode (curve class), rSmTAChE” value on rSmTAChE [1] was “decreasing”. The IC50 on rSmTAChE [1] (setting [7]) stood at 11.6 µM. The “Data Mode (curve class), rHsAChE” value in assay [3] is reported as “decreasing (weakly active)”. Further, the IC50 in assay [3] (setting [8]) was more than 12 µM. At rSmTAChE [5], the “Inhibition (%) (Average)” value was 67.00%, the “Inhibition (%) Replicate A” value was 73.36% and the “Inhibition (%) Replicate B” value was found to be 60.64%.
